# In patent publication US8815569B2, “Methods for preserving and/or storing cells having a nitrilase or nitrile hydratase activity” (priority 2003, dated 2014):
# Biological target: T1, E. coli-expressed nitrilase (Alcaligenes faecalis, UniProt P20960)
# T1 construct: expressed in transfected cells; host or cells: Escherichia coli TG10 (pDHE1650 pAgro4 pHSG575), whole-cell suspension
# Assay: Nitrilase activity test of the cell suspension after storage with aldehyde
# Assay type: cell-based, Escherichia coli
# Method: The Escherichia coli strain (TG10 pDHE1650 pAgro4 pHSG575) was fermented in a 20 l bioreactor. The reactor, containing a 10 l working volume, was inoculated with 200 ml of preliminary culture from shaker flasks. The preliminary culture medium corresponds to the main culture medium.
# The fermentation is carried out at a temperature of 37° C. The gassing is regulated between 8-30 l/min, while the rotation speed of the stirrer is regulated at […], in order to maintain a pO2 of not less than 20%. After a fermentation period of 1 h, the culture is induced with IPTG (0.15 mM). 18.5 g of rhamnose feed solution are then added. After the initially introduced quantity of glycerol has been consumed, glycerol is then fed in continuously. After a fermentation period of 44 h, cell suspensions of 50 g DBM/l and 50 to 60 ku/l are obtained. The cells are cooled down to 4° C.
# 50 μl of cell suspension are pipetted into 880 μl of sodium potassium phosphate buffer (10 mM) and the whole is equilibrated at 30° C. The reaction is started by adding 20 μl of methanolic mandelonitrile solution (12%). After 10 min, the enzyme reaction is stopped by adding 50 μl of 1M HC. The cell mass is centrifuged off and the concentration of mandelic acid in the supernatant is measured by means of HPLC (ODS Hypersil 100*2.0 mm, mobile phase: 75% H3PO4 (14.8 mM)/25% methanol; flow rate: 0.5 ml/min; injection volume: 2 μl; column temperature: 40° C.; detection: 210 nm; mandelic acid retention time: 0.9 min).
# (§1) 14 h after the end of the fermentation, the cell suspension was adjusted to a pH of 6.0, 6.6 or 7.2 with NaOH or H2SO4 and then treated with benzaldehyde. The samples were stored at 4° C. or 22° C. Enzyme activity was determined at 0.6, 3.6 and 6.6 days after the end of the fermentation.
# as §1, with “6.0, 6.6.” for “6.0, 6.6”, “with 2-chlorobenzaldehyde.” for “with benzaldehyde.”, “C. The enzyme” for “C. Enzyme”
# [1] = storage at 4° C., pH 6.0, 1 mM aldehyde, storage period 0.6 d
# [2] = storage at 4° C., pH 6.0, 1 mM aldehyde, storage period 3.6 d
# [3] = storage at 4° C., pH 6.0, 1 mM aldehyde, storage period 6.6 d
# [4] = storage at 4° C., pH 6.0, 5 mM aldehyde, storage period 0.6 d
# [5] = storage at 4° C., pH 6.0, 5 mM aldehyde, storage period 3.6 d
# [6] = storage at 4° C., pH 6.0, 5 mM aldehyde, storage period 6.6 d
# [7] = storage at 4° C., pH 6.0, 10 mM aldehyde, storage period 0.6 d
# [8] = storage at 4° C., pH 6.0, 10 mM aldehyde, storage period 3.6 d
# [9] = storage at 4° C., pH 6.0, 10 mM aldehyde, storage period 6.6 d
# [10] = storage at 4° C., pH 6.6, 1 mM aldehyde, storage period 0.6 d
# [11] = storage at 4° C., pH 6.6, 1 mM aldehyde, storage period 3.6 d
# [12] = storage at 4° C., pH 6.6, 1 mM aldehyde, storage period 6.6 d
# [13] = storage at 4° C., pH 6.6, 5 mM aldehyde, storage period 0.6 d
# [14] = storage at 4° C., pH 6.6, 5 mM aldehyde, storage period 3.6 d
# [15] = storage at 4° C., pH 6.6, 5 mM aldehyde, storage period 6.6 d
# [16] = storage at 4° C., pH 6.6, 10 mM aldehyde, storage period 0.6 d
# [17] = storage at 4° C., pH 6.6, 10 mM aldehyde, storage period 3.6 d
# [18] = storage at 4° C., pH 6.6, 10 mM aldehyde, storage period 6.6 d
# [19] = storage at 4° C., pH 7.2, 1 mM aldehyde, storage period 0.6 d
# [20] = storage at 4° C., pH 7.2, 1 mM aldehyde, storage period 3.6 d
# [21] = storage at 4° C., pH 7.2, 1 mM aldehyde, storage period 6.6 d
# [22] = storage at 4° C., pH 7.2, 5 mM aldehyde, storage period 0.6 d
# [23] = storage at 4° C., pH 7.2, 5 mM aldehyde, storage period 3.6 d
# [24] = storage at 4° C., pH 7.2, 5 mM aldehyde, storage period 6.6 d
# [25] = storage at 4° C., pH 7.2, 10 mM aldehyde, storage period 0.6 d
# [26] = storage at 4° C., pH 7.2, 10 mM aldehyde, storage period 3.6 d
# [27] = storage at 4° C., pH 7.2, 10 mM aldehyde, storage period 6.6 d
# [28] = storage at 22° C., pH 6.0, 1 mM aldehyde, storage period 0.6 d
# [29] = storage at 22° C., pH 6.0, 1 mM aldehyde, storage period 3.6 d
# [30] = storage at 22° C., pH 6.0, 1 mM aldehyde, storage period 6.6 d
# [31] = storage at 22° C., pH 6.0, 5 mM aldehyde, storage period 0.6 d
# [32] = storage at 22° C., pH 6.0, 5 mM aldehyde, storage period 3.6 d
# [33] = storage at 22° C., pH 6.0, 5 mM aldehyde, storage period 6.6 d
# [34] = storage at 22° C., pH 6.0, 10 mM aldehyde, storage period 0.6 d
# [35] = storage at 22° C., pH 6.0, 10 mM aldehyde, storage period 3.6 d
# [36] = storage at 22° C., pH 6.0, 10 mM aldehyde, storage period 6.6 d
# [37] = storage at 22° C., pH 6.6, 1 mM aldehyde, storage period 0.6 d
# [38] = storage at 22° C., pH 6.6, 1 mM aldehyde, storage period 3.6 d
# [39] = storage at 22° C., pH 6.6, 1 mM aldehyde, storage period 6.6 d
# [40] = storage at 22° C., pH 6.6, 5 mM aldehyde, storage period 0.6 d
# [41] = storage at 22° C., pH 6.6, 5 mM aldehyde, storage period 3.6 d
# [42] = storage at 22° C., pH 6.6, 5 mM aldehyde, storage period 6.6 d
# [43] = storage at 22° C., pH 6.6, 10 mM aldehyde, storage period 0.6 d
# [44] = storage at 22° C., pH 6.6, 10 mM aldehyde, storage period 3.6 d
# [45] = storage at 22° C., pH 6.6, 10 mM aldehyde, storage period 6.6 d
# [46] = storage at 22° C., pH 7.2, 1 mM aldehyde, storage period 0.6 d
# [47] = storage at 22° C., pH 7.2, 1 mM aldehyde, storage period 3.6 d
# [48] = storage at 22° C., pH 7.2, 1 mM aldehyde, storage period 6.6 d
# [49] = storage at 22° C., pH 7.2, 5 mM aldehyde, storage period 0.6 d
# [50] = storage at 22° C., pH 7.2, 5 mM aldehyde, storage period 3.6 d
# [51] = storage at 22° C., pH 7.2, 5 mM aldehyde, storage period 6.6 d
# [52] = storage at 22° C., pH 7.2, 10 mM aldehyde, storage period 0.6 d
# [53] = storage at 22° C., pH 7.2, 10 mM aldehyde, storage period 3.6 d
# [54] = storage at 22° C., pH 7.2, 10 mM aldehyde, storage period 6.6 d
# T1 sequence (P20960 whole entry Q122E/S243P/E312D/I323T/Q324R/P330Q/H331G/T335K/A336I/P338S/V341I/Q343H/T344P): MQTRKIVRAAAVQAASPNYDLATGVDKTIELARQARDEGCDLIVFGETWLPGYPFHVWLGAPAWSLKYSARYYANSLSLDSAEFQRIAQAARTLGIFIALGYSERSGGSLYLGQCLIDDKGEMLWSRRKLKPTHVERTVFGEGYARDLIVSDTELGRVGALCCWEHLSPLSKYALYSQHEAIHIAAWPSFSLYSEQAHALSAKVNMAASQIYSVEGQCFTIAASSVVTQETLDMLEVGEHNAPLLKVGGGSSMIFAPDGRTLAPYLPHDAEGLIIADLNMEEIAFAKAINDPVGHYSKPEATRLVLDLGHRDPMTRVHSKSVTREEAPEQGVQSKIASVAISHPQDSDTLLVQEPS
structure (smiles),measurement,setting,value
O=Cc1ccccc1Cl [2-chlorobenzaldehyde],Activity in kU/l,[1],52.4 kU/l
same,Activity in kU/l,[2],53.5 kU/l
same,Activity in kU/l,[3],56.9 kU/l
same,Activity in kU/l,[4],52.5 kU/l
same,Activity in kU/l,[5],55.6 kU/l
same,Activity in kU/l,[6],53.8 kU/l
same,Activity in kU/l,[7],53.5 kU/l
same,Activity in kU/l,[8],55.7 kU/l
same,Activity in kU/l,[9],47.6 kU/l
same,Activity in kU/l,[10],48.8 kU/l
same,Activity in kU/l,[11],55.1 kU/l
same,Activity in kU/l,[12],54.7 kU/l
same,Activity in kU/l,[13],50.6 kU/l
same,Activity in kU/l,[14],56.3 kU/l
same,Activity in kU/l,[15],53.6 kU/l
same,Activity in kU/l,[16],47.4 kU/l
same,Activity in kU/l,[17],55.0 kU/l
same,Activity in kU/l,[18],58.5 kU/l
same,Activity in kU/l,[19],51.3 kU/l
same,Activity in kU/l,[20],48.3 kU/l
same,Activity in kU/l,[21],45.2 kU/l
same,Activity in kU/l,[22],53.3 kU/l
same,Activity in kU/l,[23],51.2 kU/l
same,Activity in kU/l,[24],48.1 kU/l
same,Activity in kU/l,[25],48.3 kU/l
same,Activity in kU/l,[26],51.0 kU/l
same,Activity in kU/l,[27],49.9 kU/l
same,Activity in kU/l,[28],52.4 kU/l
same,Activity in kU/l,[29],53.8 kU/l
same,Activity in kU/l,[30],54.5 kU/l
same,Activity in kU/l,[31],52.5 kU/l
same,Activity in kU/l,[32],55.0 kU/l
same,Activity in kU/l,[33],59.1 kU/l
same,Activity in kU/l,[34],53.5 kU/l
same,Activity in kU/l,[35],55.7 kU/l
same,Activity in kU/l,[36],52.4 kU/l
same,Activity in kU/l,[37],48.8 kU/l
same,Activity in kU/l,[38],55.0 kU/l
same,Activity in kU/l,[39],57.2 kU/l
same,Activity in kU/l,[40],50.6 kU/l
same,Activity in kU/l,[41],56.7 kU/l
same,Activity in kU/l,[42],55.5 kU/l
same,Activity in kU/l,[43],47.4 kU/l
same,Activity in kU/l,[44],56.2 kU/l
same,Activity in kU/l,[45],58.6 kU/l
same,Activity in kU/l,[46],51.3 kU/l
same,Activity in kU/l,[47],52.8 kU/l
same,Activity in kU/l,[48],53.2 kU/l
same,Activity in kU/l,[49],53.3 kU/l
same,Activity in kU/l,[50],51.4 kU/l
same,Activity in kU/l,[51],50.1 kU/l
same,Activity in kU/l,[52],48.3 kU/l
same,Activity in kU/l,[53],52.9 kU/l
same,Activity in kU/l,[54],54.0 kU/l
O=Cc1ccccc1 [benzaldehyde],Activity in kU/l,[1],55.1 kU/l
same,Activity in kU/l,[2],49.9 kU/l
same,Activity in kU/l,[3],48.3 kU/l
same,Activity in kU/l,[4],51.8 kU/l
same,Activity in kU/l,[5],52.3 kU/l
same,Activity in kU/l,[6],53.0 kU/l
same,Activity in kU/l,[7],51.3 kU/l
same,Activity in kU/l,[8],51.5 kU/l
same,Activity in kU/l,[9],50.2 kU/l
same,Activity in kU/l,[10],53.2 kU/l
same,Activity in kU/l,[11],52.3 kU/l
same,Activity in kU/l,[12],52.5 kU/l
same,Activity in kU/l,[13],47.1 kU/l
same,Activity in kU/l,[14],52.0 kU/l
same,Activity in kU/l,[15],55.7 kU/l
same,Activity in kU/l,[16],51.3 kU/l
same,Activity in kU/l,[17],55.5 kU/l
same,Activity in kU/l,[18],51.9 kU/l
same,Activity in kU/l,[19],55.8 kU/l
same,Activity in kU/l,[20],46.8 kU/l
same,Activity in kU/l,[21],47.5 kU/l
same,Activity in kU/l,[22],47.1 kU/l
same,Activity in kU/l,[23],48.3 kU/l
same,Activity in kU/l,[24],50.7 kU/l
same,Activity in kU/l,[25],53.8 kU/l
same,Activity in kU/l,[26],51.2 kU/l
same,Activity in kU/l,[27],49.2 kU/l
same,Activity in kU/l,[28],55.1 kU/l
same,Activity in kU/l,[29],50.6 kU/l
same,Activity in kU/l,[30],51.0 kU/l
same,Activity in kU/l,[31],51.8 kU/l
same,Activity in kU/l,[32],51.5 kU/l
same,Activity in kU/l,[33],54.9 kU/l
same,Activity in kU/l,[34],51.3 kU/l
same,Activity in kU/l,[35],53.0 kU/l
same,Activity in kU/l,[36],49.2 kU/l
same,Activity in kU/l,[37],53.2 kU/l
same,Activity in kU/l,[38],53.0 kU/l
same,Activity in kU/l,[39],53.1 kU/l
same,Activity in kU/l,[40],47.1 kU/l
same,Activity in kU/l,[41],54.3 kU/l
same,Activity in kU/l,[42],58.0 kU/l
same,Activity in kU/l,[43],51.3 kU/l
same,Activity in kU/l,[44],49.4 kU/l
same,Activity in kU/l,[45],55.4 kU/l
same,Activity in kU/l,[46],55.8 kU/l
same,Activity in kU/l,[47],50.4 kU/l
same,Activity in kU/l,[48],48.7 kU/l
same,Activity in kU/l,[49],47.1 kU/l
same,Activity in kU/l,[50],51.7 kU/l
same,Activity in kU/l,[51],52.9 kU/l
same,Activity in kU/l,[52],53.8 kU/l
same,Activity in kU/l,[53],52.7 kU/l
same,Activity in kU/l,[54],51.3 kU/l
